Source: article PMC3556473, “Absorption, metabolism and excretion of [^14C]pomalidomide in humans following oral administration” (Cancer Chemotherapy and Pharmacology, 2012)

Assays:
OPM-2 MM cell = test: Inhibition of MM cell proliferation ([3H]-thymidine incorporation, 3-day culture); format: cell-based; conditions: Homo sapiens
Experimental: (§1) Metabolites and hydrolysis products of pomalidomide were tested for pharmacological activity in the following three assay systems: (1) inhibition of MM cell proliferation, (2) enhancement of primary human T cell IL-2 production and (3) inhibition of TNF-α production by lipopolysaccharide (LPS)-stimulated human peripheral blood mononuclear cells (PBMC). For all three assay types, compounds were dissolved in 100 % dimethyl sulfoxide (DMSO) and diluted into complete cell culture medium, consisting of Roswell Park Memorial Institute (RPMI)-1640 plus penicillin, streptomycin and L-glutamine (Mediatech, Manassas, VA). The MM cell proliferation cell culture medium contained 10 % fetal bovine serum, while the primary human cell cultures contained 10 % human AB serum (Invitrogen, Brown Deer, WI). The final DMSO concentration in the cell culture media was 0.25 %.
(§2) The human MM cell line OPM-2 was obtained from DSMZ (Braunschweig, Germany), and human MM cell lines U266 B1 and NCI-H929 were obtained from ATCC (Manassas, VA). Inhibition of MM cell proliferation was assessed by the [^3H]-thymidine incorporation assay in a 3-day culture in the presence of compounds in complete medium, as previously described. Primary human T cells were isolated from PBMC by negative selection using the RosetteSep T Cell Enrichment Cocktail (STEMCELL Technologies, Tukwila, WA) according to the manufacturer’s procedures. Costimulation of T cell IL-2 production was measured in a 2-day culture of primary human T cells isolated from healthy donors stimulated with anti-CD3 antibody in the presence of compounds, as previously described. Inhibition of TNF-α production by LPS-stimulated human PBMC was measured in a 1-day culture in the presence of compound, as previously described.

U266 MM cell = test: as above; format: cell-based; conditions: Homo sapiens, U-266
Experimental: as §1, §2

H929 MM cell = test: as above; format: cell-based; conditions: Homo sapiens, NCI-H929
Experimental: as §1, §2

CYP1A2 = target: T1, CYP1A2 (Homo sapiens, UniProt P05177); test: In vitro CYP phenotyping (M17 formation from [14C]pomalidomide); format: in vitro ADME
T1 construct: purchased Cypex Ltd (Scotland, UK)
T1 sequence (P05177 1-516): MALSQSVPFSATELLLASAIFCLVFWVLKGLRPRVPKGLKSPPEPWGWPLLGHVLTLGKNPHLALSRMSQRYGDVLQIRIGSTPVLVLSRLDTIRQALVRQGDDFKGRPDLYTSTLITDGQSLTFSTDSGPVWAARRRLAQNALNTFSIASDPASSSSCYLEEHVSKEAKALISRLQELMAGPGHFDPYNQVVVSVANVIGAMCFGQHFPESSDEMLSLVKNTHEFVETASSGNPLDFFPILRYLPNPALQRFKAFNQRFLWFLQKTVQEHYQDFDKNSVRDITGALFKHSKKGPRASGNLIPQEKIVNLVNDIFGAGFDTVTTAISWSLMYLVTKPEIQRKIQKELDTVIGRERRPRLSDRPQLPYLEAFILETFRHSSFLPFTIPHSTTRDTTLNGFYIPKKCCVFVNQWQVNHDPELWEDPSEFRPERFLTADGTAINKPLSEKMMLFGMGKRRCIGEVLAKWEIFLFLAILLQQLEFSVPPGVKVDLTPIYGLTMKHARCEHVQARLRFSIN
Experimental: (§3) The CYP enzymes responsible for the formation of the hydroxy pomalidomide metabolites were investigated using 10 recombinant human CYP (rCYP) enzymes (CYP1A2, CYP2A6, CYP2B6, CYP2C8, CYP2C9, CYP2C19, CYP2D6, CYP2E1, CYP3A4 and CYP3A5) at 100 pmol/mL. Incubations were prepared using [^14C]pomalidomide (1 μM) in 0.1 M potassium phosphate buffer (pH 7.4) with 4 mM MgCl2, pre-incubated for 5 min at 37 °C. Reactions were initiated by the addition of 1 mM NADPH and continued for 30 or 60 min. Reactions were quenched with two volumes of ice-cold 0.1 % formic acid in acetonitrile containing [^13C5]pomalidomide as internal standard. The samples were mixed and centrifuged, and a subsample of the supernatant evaporated to dryness. The resulting pellet was reconstituted in 0.1 % formic acid in water and acetonitrile (4:1, v/v) and analyzed using HPLC with radiochromatography and/or LC–MS/MS. The rate of formation of the notable human metabolite M17 was calculated and scaled to human in vivo situation using relative abundance method.

CYP2C19 = target: T2, CYP2C19 (Homo sapiens, UniProt P33261); test: as above; format: in vitro ADME
T2 construct: purchased Cypex Ltd (Scotland, UK)
T2 sequence (P33261 whole entry): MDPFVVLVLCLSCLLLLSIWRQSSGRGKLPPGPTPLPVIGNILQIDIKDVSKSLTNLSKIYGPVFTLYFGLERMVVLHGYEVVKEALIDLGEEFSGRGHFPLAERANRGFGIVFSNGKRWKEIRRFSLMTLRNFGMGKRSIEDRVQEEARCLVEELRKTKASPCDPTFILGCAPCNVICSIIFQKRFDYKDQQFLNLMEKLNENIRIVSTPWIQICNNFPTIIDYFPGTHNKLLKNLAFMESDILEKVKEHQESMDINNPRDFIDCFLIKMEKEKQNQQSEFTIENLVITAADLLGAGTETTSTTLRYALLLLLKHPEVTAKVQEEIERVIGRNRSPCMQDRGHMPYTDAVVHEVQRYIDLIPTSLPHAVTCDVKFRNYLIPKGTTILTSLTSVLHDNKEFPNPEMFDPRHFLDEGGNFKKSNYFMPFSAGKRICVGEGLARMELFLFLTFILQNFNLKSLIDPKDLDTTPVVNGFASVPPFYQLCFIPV
Experimental: as §3

CYP3A4 = target: T3, CYP3A4 (Homo sapiens, UniProt P08684); test: as above; format: in vitro ADME
T3 construct: purchased Cypex Ltd (Scotland, UK)
T3 sequence (P08684 whole entry): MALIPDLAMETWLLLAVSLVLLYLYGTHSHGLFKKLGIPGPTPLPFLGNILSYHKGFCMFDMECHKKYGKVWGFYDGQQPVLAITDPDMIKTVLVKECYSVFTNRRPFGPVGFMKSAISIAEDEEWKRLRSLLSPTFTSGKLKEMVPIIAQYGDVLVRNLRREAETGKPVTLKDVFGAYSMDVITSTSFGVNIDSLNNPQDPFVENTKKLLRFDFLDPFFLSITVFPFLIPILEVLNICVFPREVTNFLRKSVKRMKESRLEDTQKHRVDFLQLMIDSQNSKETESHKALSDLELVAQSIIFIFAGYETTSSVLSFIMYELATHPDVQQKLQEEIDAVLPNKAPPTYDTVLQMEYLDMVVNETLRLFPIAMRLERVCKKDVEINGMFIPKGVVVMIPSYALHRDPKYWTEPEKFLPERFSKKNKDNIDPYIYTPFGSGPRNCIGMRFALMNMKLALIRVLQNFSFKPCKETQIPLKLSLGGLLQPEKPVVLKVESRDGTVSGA
Experimental: as §3

Row | IC50 (U266 MM cell) [nM] | IC50 (H929 MM cell) [nM] | relative contribution of isozyme to the hepatic metabolism of pomalidomide (CYP1A2; CYP1A2, scaled by relative abundance in human liver) [%] | relative contribution of isozyme to the hepatic metabolism of pomalidomide (CYP2C19; CYP2C19, scaled by relative abundance in human liver) [%] | relative contribution of isozyme to the hepatic metabolism of pomalidomide (CYP3A4; CYP3A4, scaled by relative abundance in human liver) [%] | rate of M17 formation (CYP1A2; rCYP1A2, [14C]pomalidomide 1 μM, 1-h incubation, based on peak area ratios, estimated) [pmol/min/pmol P450] | rate of M17 formation (CYP2C19; rCYP2C19, [14C]pomalidomide 1 μM, 1-h incubation, based on peak area ratios, estimated) [pmol/min/pmol P450] | rate of M17 formation (CYP3A4; rCYP3A4, [14C]pomalidomide 1 μM, 1-h incubation, based on peak area ratios, estimated) [pmol/min/pmol P450] | Structure (SMILES) | IC50 (OPM-2 MM cell) [nM]
1 | 28 | 35 | 54 | 11 | 30 | – | – | – | Nc1cccc2c1C(=O)N(C1CCC(=O)NC1=O)C2=O (racemic) [Pomalidomide, (RS)-4-amino-2-(2,6-dioxo-piperidin-3-yl)-isoindoline-1,3-dione] | 38
2 | > 1000 | > 1000 | – | – | – | 0.0027 | 0.0024 | 0.0008 | Nc1c(O)ccc2c1C(=O)N(C1CCC(=O)NC1=O)C2=O (stereo not drawn) [Metabolite M17, 5-hydroxy pomalidomide] | > 1000
